Results published in publication PMC9396876, “GRK3 is a poor prognosticator and serves as a therapeutic target in advanced gastric adenocarcinoma” (Journal of Experimental & Clinical Cancer Research : CR, 2022).
pIC50: −log10 of the molar value.

Experiments:
[1] = target: T1, GRK3 (G protein-coupled receptor kinase 3) (Homo sapiens, UniProt P35626); experiment: in vitro kinase assay (Z-LYTE; ADP-Glo); format: biochemical
T1 construct: recombinant GRK3 protein
T1 sequence (P35626 1-688): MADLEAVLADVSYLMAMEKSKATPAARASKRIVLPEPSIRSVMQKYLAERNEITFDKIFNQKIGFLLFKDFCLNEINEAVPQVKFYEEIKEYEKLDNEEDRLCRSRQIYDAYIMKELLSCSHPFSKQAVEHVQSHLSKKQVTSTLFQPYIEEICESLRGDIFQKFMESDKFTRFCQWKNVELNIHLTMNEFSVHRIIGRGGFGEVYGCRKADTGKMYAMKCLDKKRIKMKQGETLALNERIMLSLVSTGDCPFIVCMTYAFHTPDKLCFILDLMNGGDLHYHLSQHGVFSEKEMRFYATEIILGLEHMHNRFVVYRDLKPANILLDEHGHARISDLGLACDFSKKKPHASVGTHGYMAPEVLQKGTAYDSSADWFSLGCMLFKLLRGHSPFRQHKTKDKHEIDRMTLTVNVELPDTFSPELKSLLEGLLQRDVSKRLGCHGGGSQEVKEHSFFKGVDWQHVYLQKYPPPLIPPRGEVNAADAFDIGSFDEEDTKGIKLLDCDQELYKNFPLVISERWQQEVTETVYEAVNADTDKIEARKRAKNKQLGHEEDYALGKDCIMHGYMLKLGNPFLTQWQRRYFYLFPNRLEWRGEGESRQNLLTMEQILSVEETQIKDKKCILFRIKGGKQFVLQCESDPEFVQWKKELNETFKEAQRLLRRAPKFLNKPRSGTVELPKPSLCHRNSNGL

[2] = target: T2, GRK2 (Homo sapiens, UniProt P25098); experiment: in vitro kinase assay (Z-LYTE; ADP-Glo); format: biochemical
T2 sequence (P25098 1-689): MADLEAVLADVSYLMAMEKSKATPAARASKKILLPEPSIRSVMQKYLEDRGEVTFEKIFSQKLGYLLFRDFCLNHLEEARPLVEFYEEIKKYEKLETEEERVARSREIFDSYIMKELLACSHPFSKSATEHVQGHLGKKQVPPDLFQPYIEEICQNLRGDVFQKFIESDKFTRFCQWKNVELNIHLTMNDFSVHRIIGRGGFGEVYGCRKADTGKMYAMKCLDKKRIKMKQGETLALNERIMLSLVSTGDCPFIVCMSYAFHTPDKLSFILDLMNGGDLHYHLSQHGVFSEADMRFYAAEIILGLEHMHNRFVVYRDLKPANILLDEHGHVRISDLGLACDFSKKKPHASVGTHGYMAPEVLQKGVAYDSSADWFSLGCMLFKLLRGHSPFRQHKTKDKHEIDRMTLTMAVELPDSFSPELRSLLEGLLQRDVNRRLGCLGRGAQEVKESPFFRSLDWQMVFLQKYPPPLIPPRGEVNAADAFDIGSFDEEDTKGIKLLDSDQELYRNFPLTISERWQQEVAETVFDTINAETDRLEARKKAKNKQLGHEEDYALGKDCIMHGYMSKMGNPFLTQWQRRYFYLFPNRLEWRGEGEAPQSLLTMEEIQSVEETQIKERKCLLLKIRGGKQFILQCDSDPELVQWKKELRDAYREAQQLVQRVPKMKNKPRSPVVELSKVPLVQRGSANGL

For `Cn1cc(-c2[nH]c3cc(NC(=O)[C@H](N)C4CCCCC4)cc4c3c2C=NNC4=O)cn1` [LD2], the pIC50 [1] was 7.09 and the pIC50 [2] was 5.71.
